pIC50: −log10 of the molar value.
Molecular target: T1, Pantetheinase (Homo sapiens, UniProt O95497)
T1 sequence (O95497 whole entry): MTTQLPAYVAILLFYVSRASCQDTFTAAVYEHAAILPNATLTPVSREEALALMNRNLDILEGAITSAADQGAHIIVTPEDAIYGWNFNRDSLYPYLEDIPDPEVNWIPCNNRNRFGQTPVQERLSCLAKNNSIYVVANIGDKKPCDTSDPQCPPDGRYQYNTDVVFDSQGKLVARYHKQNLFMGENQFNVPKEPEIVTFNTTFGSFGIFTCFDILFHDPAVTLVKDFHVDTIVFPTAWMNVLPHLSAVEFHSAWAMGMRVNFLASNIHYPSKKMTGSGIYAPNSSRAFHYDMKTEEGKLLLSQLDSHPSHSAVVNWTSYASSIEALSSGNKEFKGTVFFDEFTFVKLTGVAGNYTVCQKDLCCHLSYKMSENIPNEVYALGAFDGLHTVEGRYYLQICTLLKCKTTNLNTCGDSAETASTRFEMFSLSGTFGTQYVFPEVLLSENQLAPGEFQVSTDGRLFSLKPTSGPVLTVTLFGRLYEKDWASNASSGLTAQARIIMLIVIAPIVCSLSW
Assay: Inhibition of human vanin-1 in whole blood
Assay type: tissue-based

pIC50 | Structure (SMILES)
8.57 | CN(C(=O)[C@@H]1CCCO1)[C@H]1CCN(C(=O)c2ccc(NC(C)(C)C)nc2)C1
8.51 | CCC(C)(C)Nc1ccc(C(=O)N2CC[C@H](N(C)C(C)=O)C2)cn1
8.44 | CN(C(=O)C1CC(F)(F)C1)[C@H]1CCN(C(=O)c2ccc(NC(C)(C)C)nc2)C1

More lines, now with the values behind:

Structure (SMILES) | pIC50
CC(C)(C)Nc1ccc(C(=O)N2CC(C)(c3ccccn3)C2)cn1 | 8.57
CC(=O)N(C)[C@H]1CCN(C(=O)c2ccc(NC(C)(C)CCO)nc2)C1 | 8.80
CC(C)(C)Nc1ccc(C(=O)N2CC[C@H](N3CCOC3=O)C2)cn1 | 8.40

Reference: ChEMBL document CHEMBL4725410, “Novel Heteroaromatic Compounds as Vanin Inhibitors” (ACS Med Chem Lett, 2020)
